In assay [1] the test system is p-MLKL. Briefly: p-MLKL/MLKL in lungs of CLP mice, Western blot. The class given is in vivo, mouse. To be noted: 10 mg/kg NDI, 20 h; for lung p-MLKL/MLKL (Figure 5F): individual mice, 10 mg/kg. On the procedure:
Sepsis was induced in mice by cecal ligation and puncture (CLP) as described previously ([45], [46]). Mice were anesthetized with isoflurane to a surgical plane and placed in a supine position. CLP was performed through a midline laparotomy. The abdomen was shaved and disinfected. Through a 2 cm midline incision, the cecum was exposed and then ligated with a 4-0 silk suture 1 cm proximal from the distal cecal extremity. For 20-hour CLP experiments, the cecum was punctured twice with a 22-gauge needle. A small amount of cecal content was extruded through both holes, and the ligated cecum was returned to the peritoneal cavity. The wound was closed in layers. For 10-day sepsis survival studies, the cecum was punctured once with a 22-gauge needle. A small amount of cecal content was extruded. Mice were allocated to the vehicle and adoptive transfer of DLL4^+ neutrophils or DLL4^– neutrophils groups. Adoptive transfer mice received a retro-orbital injection of 1 × 10^6 cells per mouse DLL4^+ neutrophils or DLL4^– neutrophils in […] phosphate-buffered saline (PBS) immediately after abdominal closure in both the 20-hour experiments and the survival study. Vehicle groups received an equivalent volume of PBS, while treatment groups received NDI 10 mg/kg in […] PBS via retro-orbital injection after CLP. This dose was chosen primarily on the basis of our laboratory’s prior experience, we have consistently used this dose in mouse CLP models with reproducible efficacy and without observable toxicity ([39], [44]). Sham-operated animals underwent a laparotomy without CLP. After closure, the mice received a subcutaneous injection of 0.5 mL of normal saline to overcome surgery-induced dehydration. […]
PVECs and lung tissue were collected in previous steps. Whole-cell proteins were extracted, and the protein concentration was measured using an ABC protein assay kit (catalog 5000002, Bio-Rad). […] Bands were detected using an Odyssey FC Dual-Mode Imaging system 2800 (LI-COR).

Assay [2] relates to IL-6. The assay is described as follows: Serum IL-6, CLP mice, ELISA. The assay is classed as in vivo, mouse. To be noted: DLL4^+ neutrophil-injected CLP mice, 10 mg/kg, 20 h. Here is the method:
(§1) Sepsis was induced in mice by cecal ligation and puncture (CLP) as described previously ([45], [46]). Mice were anesthetized with isoflurane to a surgical plane and placed in a supine position. CLP was performed through a midline laparotomy. The abdomen was shaved and disinfected. Through a 2 cm midline incision, the cecum was exposed and then ligated with a 4-0 silk suture 1 cm proximal from the distal cecal extremity. For 20-hour CLP experiments, the cecum was punctured twice with a 22-gauge needle. A small amount of cecal content was extruded through both holes, and the ligated cecum was returned to the peritoneal cavity. The wound was closed in layers. For 10-day sepsis survival studies, the cecum was punctured once with a 22-gauge needle. A small amount of cecal content was extruded. Mice were allocated to the vehicle and adoptive transfer of DLL4^+ neutrophils or DLL4^– neutrophils groups. […]
(§2) Blood was collected by heart puncture and centrifuged at 1,500g and 4°C for 10 minutes, and the plasma was separated to assess cytokine levels using enzyme-linked immunosorbent assay (ELISA) kits (BD Biosciences). The plasma TNF-α (catalog 558534) and IL-6 (catalog 555240) levels were measured by ELISA.
(In general: In an ELISA, binding on a coated surface is turned into a signal by an enzyme label.)

Assay [3] deals with TNF-α. The assay is described as follows: Serum TNF-α, CLP mice, ELISA. To be noted: DLL4^+ neutrophil-injected CLP mice, 10 mg/kg, 20 h. The class given is in vivo, mouse. On the procedure: as §1, §2
Assay [4] concerns C57BL/6 mice, CLP sepsis. Briefly: Serum lactate dehydrogenase (LDH), CLP mice. The assay is classed as in vivo, mouse. Also on record: serum LDH (Figure 6C): unit not given here. The following applies: 20 h; for serum LDH (Figure 6C): 10 mg/kg NDI, individual mice. On the procedure:
(§3) Sepsis was induced in mice by cecal ligation and puncture (CLP) as described previously ([45], [46]). Mice were anesthetized with isoflurane to a surgical plane and placed in a supine position. CLP was performed through a midline laparotomy. The abdomen was shaved and disinfected. Through a 2 cm midline incision, the cecum was exposed and then ligated with a 4-0 silk suture 1 cm proximal from the distal cecal extremity. […] A small amount of cecal content was extruded through both holes, and the ligated cecum was returned to the peritoneal cavity. The wound was closed in layers. […] A small amount of cecal content was extruded. […] Vehicle groups received an equivalent volume of PBS, while treatment groups received NDI 10 mg/kg in […] PBS via retro-orbital injection after CLP. This dose was chosen primarily on the basis of our laboratory’s prior experience, we have consistently used this dose in mouse CLP models with reproducible efficacy and without observable toxicity ([39], [44]). Sham-operated animals underwent a laparotomy without CLP. After closure, the mice received a subcutaneous injection of 0.5 mL of normal saline to overcome surgery-induced dehydration. […] All mice were subcutaneously injected with a single dose of 0.1 mg/kg buprenorphine after CLP. Serum levels of alanine aminotransferase, aspartate aminotransferase, and lactate dehydrogenase were determined using specific colorimetric enzymatic assays (Pointe Scientific Inc.) according to the manufacturer’s instructions.

The subject of assay [5] is C57BL/6 mice, CLP sepsis. Briefly: Serum alanine aminotransferase (ALT), CLP mice. The assay is classed as in vivo, mouse. Also noted: serum ALT (Figure 6A): unit not given here. To be noted: 20 h; for serum ALT (Figure 6A): 10 mg/kg NDI, individual mice. Here is the method: as §3
Assay [6] relates to DLL1. The assay is described as follows: DLL1 mRNA in eCIRP-treated BMDNs, qPCR. The class given is cell-based, mouse. The following applies: for DLL1 mRNA: DLL1-CIRP. On the procedure:
mRNA was extracted from lung tissues with TRIzol reagent (Invitrogen, Thermo Fisher Scientific). An equal amount ([…]) of mRNA was reverse-transcribed into cDNA using the reverse transcriptase enzyme (Invitrogen, Thermo Fisher Scientific). qPCR was performed from the diluted cDNA templates with forward and reverse primers (Supplemental Table 4) and SYBR Green PCR Master Mix (Applied Biosystems, Thermo Fisher Scientific) using an Applied Biosystems 7300 real-time PCR machine. Mouse β-actin served as an internal control gene for normalization. Relative expression of mRNA was represented as fold change in comparison with the sham group.
BMDNs (1 × 10^6) were treated with eCIRP (1 μg/mL) for 12 hours, and DLL1, DLL3, and DLL4 were analyzed by qPCR.
In general terms: In qPCR the cycle at which signal appears reflects the starting amount.

Where [7] appears, read: DLL4^+ neutrophil-injected CLP mice, 10 mg/kg.

“And” between values parts separate entries of the source, which are not always exact repeats. Equal values may be shown once.

Take ECAGSPCHNGGTCEDGI [NDI]: the “lung p-MLKL/MLKL (Figure 5F)” value was 1.846 and 1.579 and 1.945 and 1.685 and 1.856 and 1.651 and 0.9594 in assay [1] (DLL4^+ neutrophils + CLP); 1.556 and 0.2214 and 0.5541 and 0.7582 and 0.5214 and 0.9855 in assay [1] (DLL4^– neutrophils + CLP). Moreover, the “effect on lung p-MLKL” value in assay [1] (DLL4^+ neutrophils/sepsis) is listed as “attenuated the expression/activation”. Further, the “effect on serum IL-6” value in assay [2] was “significantly reduced the serum levels of hepatic and cell injury markers and proinflammatory cytokines”. Moreover, the “effect on serum TNF-α” value in assay [3] is “significantly reduced the serum levels of hepatic and cell injury markers and proinflammatory cytokines”. In addition, in assay [4] (setting [7]), the “effect on serum LDH” value is “significantly reduced the serum levels of hepatic and cell injury markers and proinflammatory cytokines”. In addition, the “serum LDH (Figure 6C)” value in assay [4] (DLL4^+ neutrophils + CLP) is 147.333 and 112.563 and 68.952 and 111.973 and 140.948 and 125.756 and 107.496 and 149.824 and 137.164 and 20.8187 and 17.4427 and 47.264 and 66.5947 and 58.344 and 58.9333 and 52.4507 and 35.9493; in assay [4] (DLL4^– neutrophils + CLP), 149.691 and 73.0773 and 124.349 and 178.568 and 24.752 and 44.7893 and 34.7707 and 33.0027 and 50.0933. Moreover, the “effect on serum ALT” value in assay [5] (setting [7]) was “significantly reduced the serum levels of hepatic and cell injury markers and proinflammatory cytokines”. Also, the “serum ALT (Figure 6A)” value in assay [5] (DLL4^+ neutrophils + CLP) is 41.99 and 15.47 and 55.25 and 44.642 and 25.194 and 38.454 and 50.83 and 38.896 and 29.172 and 10.94 and 28.288 and 3.978 and 26.078 and 2.21; in assay [5] (DLL4^– neutrophils + CLP) it was 37.57 and 15.028 and 26.52 and 77.35 and 30.94 and 22.1 and 12.818 and 10.608.

B1: eCIRP: extracellular cold-inducible RNA-binding protein; recombinant murine, produced in our laboratory (protein, UniProt P60824 1-172, looked up)
Cold-inducible RNA-binding …: MASDEGKLFVGGLSFDTNEQALEQVFSKYGQISEVVVVKDRETQRSRGFGFVTFENIDDAKDAMMAMNGKSVDGRQIRVDQAGKSSDNRSRGYRGGSAGGRGFFRGGRSRGRGFSRGGGDRGYGGGRFESRSGGYGGSRDYYASRSQGGSYGYRSSGGSYRDSYDSYATHNE
For B1, the “effect on DLL1 expression” value in assay [6] (BMDNs, eCIRP 1 μg/mL, 12 h) is “no significant induction of DLL1 or DLL3”. The “DLL1 mRNA” value in assay [6] (replicate 1) came to 0.838; in assay [6] (replicate 2), 0.9002; in assay [6] (replicate 3), 1.276; in assay [6] (replicate 4) it was 1.001; in assay [6] (replicate 5), 0.5711; in assay [6] (replicate 6) it was 0.6454. The “DLL1 mRNA” value amounted to 0.3425 in assay [6] (replicate 7) and 0.4208 in assay [6] (replicate 8).

(Values after publication PMC12700550, “DLL4^+ neutrophils promote Notch1-mediated endothelial PANoptosis to exacerbate acute lung injury in sepsis” (The Journal of Clinical Investigation, 2025).)
